# What was measured:
# [1] = system: HA-VP16-EsaR fusion (pMON53005); experiment: Transient GUS reporter assay in transfected carrot protoplasts with VP16-EsaR effector; assay type: cell-based, Erwinia sterwartii; details: 25 [i M] OOHL, 36 hrs
# Method: Plasmids for transfection were isolated and purified using Megaprep plasmid DNA isolation kit (Qiagen). Carrot protoplasts for transfections were prepared from carrot cell suspension culture and transfected with purified DNA as described (Ulmasov et al., Plant Cell 7:1611-1623, 1995). Briefly, 10 ì g of the reporter plasmid and 5 ìg of the effector plasmid were incubated with 10^6 protoplasts for five minutes at the room temperature in the presence of polyethylene glycol-calcium solution. After diluting approximately 10-fold with the culture medium, the protoplasts were incubated in the dark for 36 hours either in the presence or absence of the inducer 3-oxohexanoyl-homoserine lactone (OHHL, racemic mixture of the L- and D-isomers, purchased from Sigma Chemical Co., St Louis, MO). After incubation, protoplasts were collected by low-speed centrifugation, lysed and the level of GUS activity was measured using fluorometric GUS assay (Jefferson et al., EMBO J. 6:3901-3907, 1987).
# Ten µg of the reporter plasmid (pMON53031), and indicated amount of the 35S effector plasmid per reaction was used for transfection in triplicate.
# TraM = details: 12.5 µM C8-AHL; reporter TraA8(3X), cl.4 (60 µg) + TraM
# Source text: Plasmids for transfection were isolated and purified using Megaprep plasmid DNA isolation kit (Qiagen).
# [2] = biological target: T1, HA-VP16-TraR fusion (TraR from Agrobacterium strain A348 fused to VP16 activation domain; pMON53030) (UniProt P06492+P33905); experiment: Transient GUS reporter assay in transfected carrot protoplasts with VP16-TraR effector; assay type: cell-based, Agrobacterium tumefaciens; parameters: + inducer (average of the GUS activities) / + inducer (GUS activity, average) / GUS activity, average (with AHL or analog at the stated concentration) / GUS activity, average (+ inducer) / GUS activity, average: unit not given here; details: for + inducer (GUS activity, average): 12.5 µM C8-AHL; for GUS activity, average: 25 µM of the AHL or analog; for + inducer (average of the GUS activities): 36 hrs
# T1 construct: PCR fragments containing open reading frames are cloned into an expression construct; expressed in transfected cells; host or cells: carrot protoplasts from cell suspension culture, transient transfection
# Source text: Carrot protoplasts were transfected with the TraA8 (4X)- GUS reporter construct with the 35S-VP16-TraR activator gene and tested for GUS induction by application of wild type AHL and the various AHL analogs described in Example 8. Table 8: Transient assays in carrot protoplasts of AHL analogs
# [3] = system: TraR (expressed from GAL1 galactose inducible promoter, pGAL415TraR); experiment: β-galactosidase reporter assay (chemiluminescent) in yeast expressing TraR; assay type: cell-based, Agrobacterium tumefaciens; details: 50µM C8-HSL, 5 hrs of growth on galactose; strain YPH499, cl.5 and 6; minimal promoter with 3 copies of TraA8 element
# [4] = system: VP16-TraR fusion (pMON53077); experiment: GUS activity in transgenic Arabidopsis plants carrying GUS reporter and 35S-VP16-TraR activator genes; assay type: in vivo, Agrobacterium tumefaciens; details: detached caulline leaves, 24 hours in MS medium with 100 µM HSL
# Method: Transgenic Arabidopsis plants containing TraA8(3X)-GUS reporter and 35S-VP16-TraR activator genes (pMON53077) were analyzed for induction of GUS activity. […] GUS assays were conducted as described by Jefferson et al. (supra).
# In addition, detached leaves incubated for 24 hours in MS medium with or without 100 µM HSL were visualized for induction of GUS activity after staining.
substance,measurement,setting,value
3-oxooctanoyl-L-homoserine lactone [C8-HSL],+ inducer (average of the GUS activities),[1]; pMON53035 (lasB box 3X-GUS) + pMON53005 60 µg,4.9
same,+ inducer (average of the GUS activities),"[1]; reporter pMON53031, pMON53005 60 µg",764.1
same,"+ inducer (GUS activity, average)",TraM,98.0
same,"GUS activity, average ('- inducer')","[2]; 1 µM of the AHL or analog, reporter TraA8(4X)-GUS + 35S-VP16-TraR",1263.2
same,"GUS activity, average (with AHL or analog at the stated concentration)","[2]; 5 µM of the AHL or analog, reporter TraA8(4X)-GUS + 35S-VP16-TraR",3018.7
same,"+ inducer (GUS activity, average)","[2]; reporter Tra box(3X), cl.5, second transfection",1576.2
same,"+ inducer (GUS activity, average)","[2]; reporter TraA1 (3X), cl.35, second transfection",1560.4
same,"+ inducer (GUS activity, average)","[2]; reporter TraA2(3X), cl.43, second transfection",2057.1
same,"+ inducer (GUS activity, average)","[2]; reporter TraA3(3X), cl.4, second transfection",100.1
same,"+ inducer (GUS activity, average)","[2]; reporter TraA4(3X), cl.23, second transfection",109.6
same,"+ inducer (GUS activity, average)","[2]; reporter TraA5(3X), cl.2, second transfection",82.3
same,"+ inducer (GUS activity, average)","[2]; reporter TraA6(3X), cl.21, second transfection",3.2
same,"+ inducer (GUS activity, average)","[2]; reporter TraA7(3X), cl.15, second transfection",236.8
same,"+ inducer (GUS activity, average)","[2]; reporter TraA8(3X), cl.4 (25µg) + TraR + CAT",762.2
same,"+ inducer (GUS activity, average)","[2]; reporter TraA8(3X), cl.4 (25µg) + TraR + TraM co-transfected",11.8
same,"+ inducer (GUS activity, average)","[2]; reporter TraA8(3X), cl.4 (25µg) + TraR + TraS co-transfected",248.3
same,"+ inducer (GUS activity, average)","[2]; reporter TraA8(3X), cl.4 (60 µg), effector printed as TraR",1665.3
same,"+ inducer (GUS activity, average)","[2]; reporter TraA8(3X), cl.4, second transfection",1759.1
same,"+ inducer (GUS activity, average)","[2]; reporter TraA8(4X), cl. 16 + HA-VP16-TraR",1015.3
same,"+ inducer (GUS activity, average)","[2]; reporter TraA10(3X), cl.17, second transfection",641.1
same,"+ inducer (GUS activity, average)","[2]; reporter TraA-1(3X), cl.14, second transfection",26.7
same,"+ inducer (GUS activity, average)","[2]; reporter tra box (6X), cl.7, first transfection",987.4
same,"+ inducer (GUS activity, average)","[2]; reporter traA1(3X), cl.35, first transfection",1941.5
same,"+ inducer (GUS activity, average)","[2]; reporter traA2(3X), cl.43, first transfection",2281.6
same,"+ inducer (GUS activity, average)","[2]; reporter traA3(3X), cl.4, first transfection",116.5
same,"+ inducer (GUS activity, average)","[2]; reporter traA4(3X), cl.23, first transfection",122.8
same,"+ inducer (GUS activity, average)","[2]; reporter traA5(3X), cl.2, first transfection",20.5
same,"+ inducer (GUS activity, average)","[2]; reporter traA6(3X), cl.21, first transfection",64.6
same,"+ inducer (GUS activity, average)","[2]; reporter traA7(3X), cl.15, first transfection",234.8
same,"+ inducer (GUS activity, average)","[2]; reporter traA8(3X), cl.4, first transfection",888.0
same,"+ inducer (GUS activity, average)","[2]; reporter traA9(3X), cl.8, first transfection",63.7
same,"GUS activity, average (+ inducer)","[2]; 12.5 µM of the AHL or analog, reporter TraA8(4X)-GUS + 35S-VP16-TraR",4142.8
same,"GUS activity, average",[2]; reporter TraA8(4X)-GUS + 35S-VP16-TraR,7642.9
same,"GUS activity, average","[2]; reporter TraA8(4X)-GUS + 35S-VP16-TraR, listed as CB-HSL",7523.9
same,"GUS activity, average (+ inducer)","[2]; 75 µM of the AHL or analog, reporter TraA8(4X)-GUS + 35S-VP16-TraR",7975.7
same,+ inducer (average of the GUS activities),"[2]; 0.1 [i M] OOHL, reporter pMON53031, pMON53030 60 µg",355.9
same,+ inducer (average of the GUS activities),"[2]; 0.5 [i M] OOHL, reporter pMON53031, pMON53030 60 µg",698
same,+ inducer (average of the GUS activities),"[2]; 1 [i M] OOHL, reporter pMON53031, pMON53030 60 µg",458.2
same,+ inducer (average of the GUS activities),"[2]; 2.5 [i M] OOHL, reporter pMON53031, pMON53030 60 µg",1487.8
same,+ inducer (average of the GUS activities),"[2]; 5 [i M] OOHL, reporter pMON53031, pMON53030 60 µg",1474.2
same,+ inducer (average of the GUS activities),"[2]; 12.5 [i M] OOHL, reporter pMON53031, pMON53030 60 µg",1526.2
same,+ inducer (average of the GUS activities),"[2]; 25 [i M] OOHL, reporter pMON53031, pMON53030 30 µg + CAT",215.7
same,+ inducer (average of the GUS activities),"[2]; 25 [i M] inducer (OOHL, or C6), reporter pMON53031, pMON53030 60 µg",1393.2
same,+ inducer (average of the GUS activities),"[2]; 50 [i M] OOHL, reporter pMON53031, pMON53030 60 µg",1595.5
same,+ inducer (average of the GUS activities),"[2]; 100 [i M] OOHL, reporter pMON53031 (traII box 3X-GUS) 10 µg, pMON53030 60 µg",1446.4
same,induction of β-gal activity in cell extracts,[3],strong induction
same,induction of GUS activity by histochemical GUS staining,[4],uniform induced activity
